Where two headings read alike, the source gives them in different places.
Assays:
Assay type in all cases: in vivo
[1] = system: velvetleaf (Abutilon theophrasti); assay: Test A pre-/postemergence plant response; conditions: Abutilon theophrasti, 240 h; for pest or weed control at 125 g/ha: 125 g ai/ha; for pest or weed control at 500 g/ha: 500 g ai/ha
Summary of the method: (§1)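 Seeds planted in loam soil/sand blend; test chemicals in non-phytotoxic solvent mixture with surfactant applied as directed soil spray preemergence and, concurrently, postemergence to plants 2–10 cm tall at one- to two-leaf stage. Greenhouse ~10 days; visual injury vs untreated controls, 0 (no effect) to 100 (complete control).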

[2] = system: wheat (Triticum aestivum); assay: Test A pre-/postemergence plant response; conditions: Triticum aestivum, 240 h; for plant injury at 125 g/ha: 125 g ai/ha; for plant injury at 500 g/ha: 500 g ai/ha
Summary of the method: as §1

[3] = system: barnyardgrass (Echinochloa crus-galli); assay: Test A pre-/postemergence plant response; conditions: Echinochloa crus-galli, 240 h; for pest or weed control at 125 g/ha: 125 g ai/ha; for pest or weed control at 500 g/ha: 500 g ai/ha
Summary of the method: as §1

corn (Zea mays) = assay: Test A pre-/postemergence plant response; conditions: Zea mays, 240 h; for Corn plant response rating (crop injury, 0 = no effect, 100 = complete kill) at 500 g/ha: 500 g ai/ha
Summary of the method: as §1

[4] = system: pigweed (Amaranthus retroflexus); assay: Test A pre-/postemergence plant response; conditions: Amaranthus retroflexus, 240 h; for pest or weed control at 125 g/ha: 125 g ai/ha; for pest or weed control at 500 g/ha: 500 g ai/ha
Summary of the method: as §1

[5] = system: giant foxtail (Setaria faberii); assay: Test A pre-/postemergence plant response; conditions: Setaria faberi, 240 h; for pest or weed control at 125 g/ha: 125 g ai/ha; for pest or weed control at 500 g/ha: 500 g ai/ha
Summary of the method: as §1

[6] = system: morningglory (Ipomoea spp.); assay: Test A pre-/postemergence plant response; conditions: Ipomoea, 240 h; for pest or weed control at 125 g/ha: 125 g ai/ha; for pest or weed control at 500 g/ha: 500 g ai/ha
Summary of the method: as §1

[7] = system: large crabgrass (Digitaria sanguinalis); assay: Test A pre-/postemergence plant response; conditions: Digitaria sanguinalis, 240 h; for pest or weed control at 125 g/ha: 125 g ai/ha; for pest or weed control at 500 g/ha: 500 g ai/ha
Summary of the method: as §1

[8] = system: barnyardgrass (Echinochloa crus-galli); assay: Test B flooded paddy test; conditions: Echinochloa crus-galli, 360 h
Summary of the method: (§2)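 Each compound is added to standing floodwater (3 cm above soil, maintained) in pots of 2-leaf-stage plants; greenhouse exposure lasts 13–15 d before visual comparison with controls on a 0–100 control scale.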

rice (Oryza sativa) = assay: Test B flooded paddy test; conditions: Oryza sativa
Summary of the method: as §2

[9] = system: umbrella sedge (Cyperus difformis); assay: Test B flooded paddy test; conditions: Cyperus difformis, 360 h
Summary of the method: as §2

[10] = system: ducksalad (Heteranthera limosa); assay: Test B flooded paddy test; conditions: Heteranthera limosa, 360 h
Summary of the method: as §2

Q: How did the pest or weed control at 125 g/ha ([1]; post-emergence, Postemergence, visual injury, 0 to 100 scale (0 no effect, 100 complete control), approx. ten days, read-out: Velvetleaf plant response rating) turn out when `Cc1c(F)cccc1-n1c(-c2ccccc2)ncc(C(=O)C2=C(O)CCCC2=O)c1=O` [Compound 47, 3-(3-fluoro-2-methylphenyl)-5-[(2-hydroxy-6-oxo-1-cyclohexen-1-yl)carbonyl]-2-phenyl-4(3H)-pyrimidinone] was run?
A: 100%

Q: What about the pest or weed control at 500 g/ha ([1]; post-emergence, Postemergence, 0 to 100 scale, 0 = no effect, 100 = complete control, approx. ten days, read-out: Plant response rating, Velvetleaf) of the same molecule?
A: 100%

Q: What about the pest or weed control at 125 g/ha ([1]; pre-emergence, Preemergence, 0 to 100 scale, 0 = no effect, 100 = complete control, read-out: Plant response rating, Velvetleaf) of the same molecule?
A: 70%

Q: What about the pest or weed control at 500 g/ha ([1]; pre-emergence, Preemergence, visual injury, 0 to 100 scale (0 no effect, 100 complete control), approx. ten days, read-out: Plant response rating, Velvetleaf) of the same molecule?
A: 100%

Q: What about the plant injury at 125 g/ha ([2]; post-emergence, Postemergence, visual injury, 0 to 100 scale (0 no effect, 100 complete control), approx. ten days, read-out: Wheat plant response rating) of the same molecule?
A: 0%

Q: What about the plant injury at 500 g/ha ([2]; post-emergence, Postemergence, 0 to 100 scale, 0 = no effect, 100 = complete control, approx. ten days, read-out: Plant response rating, Wheat) of the same molecule?
A: 0%

Q: And the plant injury at 125 g/ha ([2]; pre-emergence, Preemergence, 0 to 100 scale, 0 = no effect, 100 = complete control, read-out: Plant response rating, Wheat)?
A: 0%

Q: What about the plant injury at 500 g/ha ([2]; pre-emergence, Preemergence, visual injury, 0 to 100 scale (0 no effect, 100 complete control), approx. ten days, read-out: Plant response rating, Wheat) of the same molecule?
A: 0%

Q: What about the pest or weed control at 125 g/ha ([3]; post-emergence, Postemergence, visual injury, 0 to 100 scale (0 no effect, 100 complete control), approx. ten days, read-out: Barnyardgrass plant response rating) of the same molecule?
A: 90%

Q: And the pest or weed control at 500 g/ha ([3]; post-emergence, Postemergence, 0 to 100 scale, 0 = no effect, 100 = complete control, approx. ten days, read-out: Plant response rating, Barnyardgrass)?
A: 100%

Q: And the pest or weed control at 125 g/ha ([3]; pre-emergence, Preemergence, 0 to 100 scale, 0 = no effect, 100 = complete control, read-out: Plant response rating, Barnyardgrass)?
A: 10%

Q: What about the pest or weed control at 500 g/ha ([3]; pre-emergence, Preemergence, visual injury, 0 to 100 scale (0 no effect, 100 complete control), approx. ten days, read-out: Plant response rating, Barnyardgrass) of the same molecule?
A: 90%

Q: What about the plant injury at 125 g/ha (corn (Zea mays); post-emergence, Postemergence, 125 g ai/ha, visual injury, 0 to 100 scale (0 no effect, 100 complete control), approx. ten days, read-out: Corn plant response rating) of the same molecule?
A: 0%

Q: And the Corn plant response rating (crop injury, 0 = no effect, 100 = complete kill) at 500 g/ha (corn (Zea mays); post-emergence, Postemergence, 0 to 100 scale, 0 = no effect, 100 = complete control, approx. ten days)?
A: 70%

Q: And the Corn plant response rating (crop injury, 0 = no effect, 100 = complete kill) at 125 g/ha (corn (Zea mays); pre-emergence, Preemergence, 125 g ai/ha, 0 to 100 scale, 0 = no effect, 100 = complete control)?
A: 0%

Q: And the Corn plant response rating (crop injury, 0 = no effect, 100 = complete kill) at 500 g/ha (corn (Zea mays); pre-emergence, Preemergence, visual injury, 0 to 100 scale (0 no effect, 100 complete control), approx. ten days)?
A: 0%

Q: And the pest or weed control at 125 g/ha ([4]; post-emergence, Postemergence, visual injury, 0 to 100 scale (0 no effect, 100 complete control), approx. ten days, read-out: Pigweed plant response rating)?
A: 90%

Q: What about the pest or weed control at 500 g/ha ([4]; post-emergence, Postemergence, 0 to 100 scale, 0 = no effect, 100 = complete control, approx. ten days, read-out: Plant response rating, Pigweed) of the same molecule?
A: 100%

Q: And the pest or weed control at 125 g/ha ([4]; pre-emergence, Preemergence, 0 to 100 scale, 0 = no effect, 100 = complete control, read-out: Plant response rating, Pigweed)?
A: 80%

Q: And the pest or weed control at 500 g/ha ([4]; pre-emergence, Preemergence, visual injury, 0 to 100 scale (0 no effect, 100 complete control), approx. ten days, read-out: Plant response rating, Pigweed)?
A: 100%

Q: What about the pest or weed control at 125 g/ha ([5]; post-emergence, Postemergence, visual injury, 0 to 100 scale (0 no effect, 100 complete control), approx. ten days, read-out: Foxtail, Giant plant response rating) of the same molecule?
A: 90%

Q: What about the pest or weed control at 500 g/ha ([5]; post-emergence, Postemergence, 0 to 100 scale, 0 = no effect, 100 = complete control, approx. ten days, read-out: Plant response rating, Foxtail, Giant) of the same molecule?
A: 100%

Q: And the pest or weed control at 125 g/ha ([5]; pre-emergence, Preemergence, 0 to 100 scale, 0 = no effect, 100 = complete control, read-out: Plant response rating, Foxtail, Giant)?
A: 50%

Q: What about the pest or weed control at 500 g/ha ([5]; pre-emergence, Preemergence, visual injury, 0 to 100 scale (0 no effect, 100 complete control), approx. ten days, read-out: Plant response rating, Foxtail, Giant) of the same molecule?
A: 90%

Q: What about the pest or weed control at 125 g/ha ([6]; post-emergence, Postemergence, visual injury, 0 to 100 scale (0 no effect, 100 complete control), approx. ten days, read-out: Morningglory plant response rating) of the same molecule?
A: 80%

Q: What about the pest or weed control at 500 g/ha ([6]; post-emergence, Postemergence, 0 to 100 scale, 0 = no effect, 100 = complete control, approx. ten days, read-out: Plant response rating, Morningglory) of the same molecule?
A: 100%

Q: And the pest or weed control at 125 g/ha ([6]; pre-emergence, Preemergence, 0 to 100 scale, 0 = no effect, 100 = complete control, read-out: Plant response rating, Morningglory)?
A: 60%

Q: What about the pest or weed control at 500 g/ha ([6]; pre-emergence, Preemergence, visual injury, 0 to 100 scale (0 no effect, 100 complete control), approx. ten days, read-out: Plant response rating, Morningglory) of the same molecule?
A: 90%

Q: And the pest or weed control at 125 g/ha ([7]; post-emergence, Postemergence, visual injury, 0 to 100 scale (0 no effect, 100 complete control), approx. ten days, read-out: Crabgrass, Large plant response rating)?
A: 90%

Q: And the pest or weed control at 500 g/ha ([7]; post-emergence, Postemergence, 0 to 100 scale, 0 = no effect, 100 = complete control, approx. ten days, read-out: Plant response rating, Crabgrass, Large)?
A: 100%

Q: What about the pest or weed control at 125 g/ha ([7]; pre-emergence, Preemergence, 0 to 100 scale, 0 = no effect, 100 = complete control, read-out: Plant response rating, Crabgrass, Large) of the same molecule?
A: 70%

Q: And the pest or weed control at 500 g/ha ([7]; pre-emergence, Preemergence, visual injury, 0 to 100 scale (0 no effect, 100 complete control), approx. ten days, read-out: Plant response rating, Crabgrass, Large)?
A: 100%

Q: What about the pest or weed control at 250 g/ha ([8]; 250 g ai/ha, flooded paddy test, visual rating on 0 to 100 scale (0 no effect, 100 complete control) after 13 to 15 days, read-out: Plant response rating, Flood, Barnyardgrass) of the same molecule?
A: 20%

Q: And the pest or weed control at 62 g/ha ([8]; Flood (flooded paddy test), 62 g ai/ha, scale of 0 to 100 where 0 is no effect and 100 is complete control, 13 to 15 days, read-out: Plant response rating, Barnyardgrass)?
A: 0%

Q: What about the plant injury at 250 g/ha (rice (Oryza sativa); 250 g ai/ha, flooded paddy test, visual rating on 0 to 100 scale (0 no effect, 100 complete control) after 13 to 15 days, read-out: Plant response rating, Flood, Rice) of the same molecule?
A: 25%

Q: And the plant injury at 62 g/ha (rice (Oryza sativa); Flood (flooded paddy test), 62 g ai/ha, scale of 0 to 100 where 0 is no effect and 100 is complete control, 13 to 15 days, read-out: Plant response rating, Rice)?
A: 15%

Q: What about the pest or weed control at 250 g/ha ([9]; 250 g ai/ha, flooded paddy test, visual rating on 0 to 100 scale (0 no effect, 100 complete control) after 13 to 15 days, read-out: Plant response rating, Flood, Sedge, Umbrella) of the same molecule?
A: 85%

Q: What about the pest or weed control at 62 g/ha ([9]; Flood (flooded paddy test), 62 g ai/ha, scale of 0 to 100 where 0 is no effect and 100 is complete control, 13 to 15 days, read-out: Plant response rating, Sedge, Umbrella) of the same molecule?
A: 70%

Q: What about the pest or weed control at 250 g/ha ([10]; 250 g ai/ha, flooded paddy test, visual rating on 0 to 100 scale (0 no effect, 100 complete control) after 13 to 15 days, read-out: Plant response rating, Flood, Ducksalad) of the same molecule?
A: 95%

Q: What about the pest or weed control at 62 g/ha ([10]; Flood (flooded paddy test), 62 g ai/ha, scale of 0 to 100 where 0 is no effect and 100 is complete control, 13 to 15 days, read-out: Plant response rating, Ducksalad) of the same molecule?
A: 65%
